Format in all cases: cell-based
For one experiment, the target named is T1, FPR2 (Homo sapiens, UniProt P25090).
T1 construct: expressed in transfected cells; host or cells: HL60 cells, stably transfected
T1 sequence (P25090 1-351): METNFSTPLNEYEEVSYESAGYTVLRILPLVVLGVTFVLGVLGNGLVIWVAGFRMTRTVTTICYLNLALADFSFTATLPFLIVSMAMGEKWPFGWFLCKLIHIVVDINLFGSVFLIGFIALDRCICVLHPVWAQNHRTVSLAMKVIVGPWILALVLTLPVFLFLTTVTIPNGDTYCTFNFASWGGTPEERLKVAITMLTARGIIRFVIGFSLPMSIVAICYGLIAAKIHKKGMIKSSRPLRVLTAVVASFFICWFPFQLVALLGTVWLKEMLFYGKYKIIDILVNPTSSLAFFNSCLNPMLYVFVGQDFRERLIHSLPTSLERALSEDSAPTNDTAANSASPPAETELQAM
Kind of experiment: Ca2+ flux in HL60 cells stably transfected with FPR2. The settings on record: for Activation of FPR2 relative to FPR1 and FPR3: both peptides. On the procedure:
(§1) Next, we analyzed Ca^2+ flux as a general measure to test for neutrophil activation, as used in previous studies. HL60 cells stably transfected with different FPR receptor genes were used to determine which FPR receptors are differentially activated by PSMα3 versus PSMα3N22Y (Fig. 4A). […] At a peptide concentration of 100 nM, we observed a difference of ∼factor 2 in chemotactic activity comparing the two peptides when FPR1 recognition was inhibited by CHIPS, likely attributable to FPR2-mediated recognition. Owing to the overall ∼10 times lower capacity to stimulate FPR receptors other than FPR2, we observed no chemotaxis at that peptide concentration with addition of the FPR2 blocking agent FLIPr.
(A) Differential activation of FPRs by PSMα3 versus PSMα3N22Y was measured using synthetic peptides and Ca^2+ flux observed in HL60 cells stably transfected with the corresponding FPR genes as readout, using three biological and two technical replicates. The calculated Kd values are shown on the right. […] (B) Ca^2+ flux in human neutrophils upon addition of PSMα3 or PSMα3N22Y and inhibition by FLIPr (FPR2 inhibitor) or CHIPS (FPR1 inhibitor). Neutrophils were from three donors and the measurements were performed in quadruplicate. *, p<0.05; **, p<0.01; ***, p<0.001; ****, p<0.0001 (comparing values obtained with PSMα3 versus corresponding values obtained with PSMα3N22Y). TEXT PRINTED IN THE PICTURE: (A) PSMα3: Kd (nM): FPR1: 615.6 ± 101.2; Kd (nM): FPR2: 11.90 ± 1.90; Kd (nM): FPR3: 1377 ± 285 | (A) PSMα3 N22Y: Kd (nM): FPR1: 3039 ± 682; Kd (nM): FPR2: 10.81 ± 2.38; Kd (nM): FPR3: 953.0 ± 253.9
Synthetic PSM peptides were obtained from commercial vendors at a purity of >95%. They all carry the N-terminal N-formyl methionine as common for PSMs, which are secreted into the medium without a signal peptide. […]
(§2) Human neutrophils were isolated from venous blood of healthy donors as described, [39]. Neutrophil chemotaxis and Ca^2+ flux were determined as previously described, [24]. […] Chemotaxis of neutrophils was determined using a transwell system (Costar) with analysis of neutrophil migration using fluorescence labeling. Calcium fluxes were monitored as a surrogate marker for chemotaxis since it can be measured more robustly and accurately than chemotaxis. For measurement of Ca^2+ fluxes, 5×10^6 neutrophils/ml were labeled with a fluorescent dye and analyzed with a FACScalibur (Becton Dickinson) as described. […] Measurements of 2,000 events were performed and Ca^2+ flux was expressed as relative fluorescence corrected for buffer controls. […] At the desired times, PMN lysis was determined by release of lactate dehydrogenase (LDH) (Cytotoxicity Detection Kit, Roche Applied Sciences).

Experiment [1] relates to human neutrophils. The experiment can be described thus: Human neutrophil chemotaxis / Ca2+ flux with FPR2 inhibited by FLIPr. The settings on record: FLIPr 0.5 µg/ml, 20 min pre-incubation at room temperature, three donors, quadruplicate; for Chemotaxis with addition of FPR2 blocking agent FLIPr, 100 nM peptide: peptide 100 nM. As to the method: as §1
(A) Differential activation of FPRs by PSMα3 versus PSMα3N22Y was measured using synthetic peptides and Ca^2+ flux observed in HL60 cells stably transfected with the corresponding FPR genes as readout, using three biological and two technical replicates. The calculated Kd values are shown on the right. […] (B) Ca^2+ flux in human neutrophils upon addition of PSMα3 or PSMα3N22Y and inhibition by FLIPr (FPR2 inhibitor) or CHIPS (FPR1 inhibitor). […]
as §2

For experiment [2], the system named is human neutrophils. Kind of experiment: PMN lysis (LDH release). Conditions: 37°C, 1 h; for PMN lysis at high concentration: synthetic peptides at 10 µg/ml or higher. As to the method:
Figure 5 PSMα3N22Y has diminished cytolytic activities. (A) PMN lysis of synthetic PSMα3N22Y versus PSMα3. Data are from 2 donors, measured in triplicate each after incubation at 37°C for 1 h. […] (B) Hemolysis of synthetic PSMα3N22Y versus PSMα3. Data are from 2 donors, measured in triplicate, after incubation at 37°C for 1 h. (C, D) PMN lysis and hemolysis, respectively, of culture filtrates from PSMα3N22Y- versus PSMα3-producing strains when expressed on plasmids. pTXΔ16 is the empty control vector. The background strain in all constructs is a PSM-free USA300 strain (LACΔpsmαΔpsmβΔhld). Culture filtrates were diluted 1∶20 for the PMN lysis and 1∶2 for the hemolysis measurements. PMN lysis results are from two and hemolysis data from one donor, with three replicates measured each. (E) PMN lysis of culture filtrates from MRSA252 (252) versus 252*, in which the psmα3 gene (expressing PSMα3N22Y) on the genome was changed to express PSMα3 as present in all non-CC30 strains. […] Culture filtrates were diluted 1∶10. *, p<0.05 (paired t-test). (F) Hemolysis of culture filtrates from the same strains as in (E) at different dilutions. (A–F), *, p<0.05; **, p<0.01; ***, p<0.001; ****, p<0.0001. […]
as §2
For orientation: LDH leaks from cells whose membrane has failed.

Experiment [3] deals with human neutrophils. The experiment can be described thus: Human neutrophil chemotaxis / Ca2+ flux with FPR1 inhibited by CHIPS. Conditions: peptide 100 nM; CHIPS 1.4 µg/ml, 20 min pre-incubation at room temperature; three donors, quadruplicate. As to the method:
Next, we analyzed Ca^2+ flux as a general measure to test for neutrophil activation, as used in previous studies. HL60 cells stably transfected with different FPR receptor genes were used to determine which FPR receptors are differentially activated by PSMα3 versus PSMα3N22Y (Fig. 4A). […] At a peptide concentration of 100 nM, we observed a difference of ∼factor 2 in chemotactic activity comparing the two peptides when FPR1 recognition was inhibited by CHIPS, likely attributable to FPR2-mediated recognition. […]
(A) Differential activation of FPRs by PSMα3 versus PSMα3N22Y was measured using synthetic peptides and Ca^2+ flux observed in HL60 cells stably transfected with the corresponding FPR genes as readout, using three biological and two technical replicates. The calculated Kd values are shown on the right. […]
Human neutrophils were isolated from venous blood of healthy donors as described, [39]. Neutrophil chemotaxis and Ca^2+ flux were determined as previously described, [24]. […] Chemotaxis of neutrophils was determined using a transwell system (Costar) with analysis of neutrophil migration using fluorescence labeling. Calcium fluxes were monitored as a surrogate marker for chemotaxis since it can be measured more robustly and accurately than chemotaxis. […] Measurements of 2,000 events were performed and Ca^2+ flux was expressed as relative fluorescence corrected for buffer controls. […]

Where [4] appears, read: Ca2+ flux, transfected HL60 cells.

A word on the Kd: it is the concentration at which binding is half-saturated. A high value points to a looser complex. `CSCC[C@H](NC=O)C(=O)N[C@@H](CCC(=O)O)C(=O)N[C@@H](Cc1ccccc1)C(=O)N[C@H](C(=O)N[C@@H](C)C(=O)N[C@@H](CCCCN)C(=O)N[C@@H](CC(C)C)C(=O)N[C@@H](Cc1ccccc1)C(=O)N[C@@H](CCCCN)C(=O)N[C@@H](Cc1ccccc1)C(=O)N[C@@H](Cc1ccccc1)C(=O)N[C@@H](CCCCN)C(=O)N[C@@H](CC(=O)O)C(=O)N[C@@H](CC(C)C)C(=O)N[C@@H](CC(C)C)C(=O)NCC(=O)N[C@@H](CCCCN)C(=O)N[C@@H](Cc1ccccc1)C(=O)N[C@@H](CC(C)C)C(=O)NCC(=O)N[C@@H](CC(N)=O)C(=O)N[C@@H](Cc1ccc(O)cc1)C(=O)O)C(C)C` [PSMα3N22Y]: at FPR2 (setting [4]), the “FPR2-activating potential, PSMα3 versus PSMα3N22Y” value is on record as “no difference in the FPR2-activating potential”; the “Activation of FPR2 relative to FPR1 and FPR3” value is “activated FPR2 much stronger than FPR1 and FPR3”. Also, the Kd at FPR2 (one site-binding model from Ca2+ flux, synthetic peptides, FPR2-transfected HL60 cells, three biological and two technical replicates, error = standard deviation) is 10.8 ± 2.38 nM. In addition, the “Chemotaxis with addition of FPR2 blocking agent FLIPr, 100 nM peptide” value with human neutrophils [1] is “no chemotaxis”. Also, the “Difference in chemotactic potential between the two peptides with FPR2 blocked, 1 µM peptide” value with human neutrophils [1] (peptide 1 µM) is recorded as “very strong difference in chemotactic potential”. Also, in the experiment with human neutrophils [2], the “PMN lysis at high concentration” value is given as “completely lysed the neutrophils”.

`CSCC[C@H](NC=O)C(=O)N[C@@H](CCC(=O)O)C(=O)N[C@@H](Cc1ccccc1)C(=O)N[C@H](C(=O)N[C@@H](C)C(=O)N[C@@H](CCCCN)C(=O)N[C@@H](CC(C)C)C(=O)N[C@@H](Cc1ccccc1)C(=O)N[C@@H](CCCCN)C(=O)N[C@@H](Cc1ccccc1)C(=O)N[C@@H](Cc1ccccc1)C(=O)N[C@@H](CCCCN)C(=O)N[C@@H](CC(=O)O)C(=O)N[C@@H](CC(C)C)C(=O)N[C@@H](CC(C)C)C(=O)NCC(=O)N[C@@H](CCCCN)C(=O)N[C@@H](Cc1ccccc1)C(=O)N[C@@H](CC(C)C)C(=O)NCC(=O)N[C@@H](CC(N)=O)C(=O)N[C@@H](CC(N)=O)C(=O)O)C(C)C` [PSMα3]: the “Activation of FPR2 relative to FPR1 and FPR3” value at FPR2 (setting [4]) is “activated FPR2 much stronger than FPR1 and FPR3”. The “Factor of difference in chemotactic activity between the two peptides, FPR1 inhibited by CHIPS” value in the experiment on human neutrophils [3] is recorded as approximately 2. In the experiment on human neutrophils [1], the “Chemotaxis with addition of FPR2 blocking agent FLIPr, 100 nM peptide” value is listed as “no chemotaxis”. In addition, the “PMN lysis at high concentration” value with human neutrophils [2] is “completely lysed the neutrophils”. The “Cytolytic capacity toward human neutrophils” value in the experiment on human neutrophils [2] (synthetic peptides, LDH release, 2 donors, triplicate, compared to PSMα3N22Y) is “significantly higher cytolytic capacities”.

Values taken from publication PMC4140855, “Production of an Attenuated Phenol-Soluble Modulin Variant Unique to the MRSA Clonal Complex 30 Increases Severity of Bloodstream Infection” (PLoS Pathogens, 2014).
